Reference: patent US20210267203A1, “PESTICIDALLY ACTIVE AZOLE-AMIDE COMPOUNDS” (SYNGENTA PARTICIPATIONS AG, priority 2018, published 2021)

How the values were obtained:
Format in all cases: in vivo
[1] = system: Diabrotica Balteata (Corn Root Worm); test: Example B1: Diabrotica balteata (corn root worm), maize sprouts sprayed, L2 larvae; conditions: 96 h, application rate 200 ppm, 4 days after infestation, read-out: effect in at least one of the two categories (mortality or growth inhibition)
Outline: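 Maize sprouts on agar sprayed with aqueous dilutions of 10,000 ppm DMSO stocks, dried, then infested with 6–10 L2 larvae per well. Mortality and growth inhibition scored against untreated samples 4 days after infestation; rates of 200 ppm.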

[2] = system: Euschistus heros (Neotropical Brown Stink Bug); test: Example B2: Euschistus heros (neotropical brown stink bug), soybean leaves sprayed, N2 nymphs; conditions: 120 h, application rate 200 ppm, 5 days after infestation, read-out: effect in at least one of the two categories (mortality or growth inhibition)
Outline: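 Soybean leaves on agar sprayed with aqueous test solutions made from 10,000 ppm DMSO stocks, dried, then infested with N2 nymphs. Mortality and growth inhibition scored versus untreated samples 5 days after infestation; activity threshold at 200 ppm.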

[3] = system: Plutella xylostella (Diamond Back Moth); test: Example B5: Plutella xylostella (diamond back moth), artificial diet, 24-well, eggs; conditions: 192 h, application rate 200 ppm, 8 days after infestation, read-out: effect in at least one of the two categories (mortality or growth inhibition)
Outline: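 Artificial diet in 24-well plates treated with aqueous dilutions of 10,000 ppm DMSO stocks, dried, then infested with Plutella eggs. Mortality and growth inhibition scored against untreated samples 8 days after infestation; activity rated at 200 ppm application rate.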

[4] = system: Myzus persicae (Green Peach Aphid); test: Example B6: Myzus persicae (green peach aphid), feeding/contact activity; conditions: 144 h, application rate 200 ppm, 6 days after infestation
Experimental: Example B6: Myzus persicae (Green Peach Aphid):Feeding/Contact Activity
(§1) Sunflower leaf discs were placed onto agar in a 24-well microtiter plate and sprayed with aqueous test solutions prepared from 10,000 ppm DMSO stock solutions. After drying, the leaf discs were infested with an aphid population of mixed ages. The samples were assessed for mortality 6 days after infestation.

[5] = system: Myzus persicae (Green Peach Aphid); test: Example B7: Myzus persicae (green peach aphid), systemic activity; conditions: 144 h, test rate 24 ppm, pea seedling roots in test solution, 6 days
Experimental: Example B7: Myzus persicae (Green Peach Aphid), Systemic Activity
Roots of pea seedlings infested with an aphid population of mixed ages were placed directly into aqueous test solutions prepared from 10,000 DMSO stock solutions. The samples were assessed for mortality 6 days after placing seedlings into test solutions.

[6] = system: Myzus persicae (Green Peach Aphid); test: Example B8: Myzus persicae (green peach aphid), intrinsic activity; conditions: 120 h, test rate 12 ppm, sucrose solution, 24-well, 5 days after infestation
Outline: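 Compounds diluted from 10,000 ppm DMSO stock were mixed with sucrose solution under stretched Parafilm in a sachet feeding setup, with aphid-infested pea seedlings placed on the membrane. Mortality was scored 5 days after infestation.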

[7] = system: Tetranychus urticae (Two-Spotted Spider Mite); test: Example B11: Tetranychus urticae (two-spotted spider mite), feeding/contact activity; conditions: 192 h, application rate 200 ppm, mixed population (mobile stages), 8 days after infestation
Experimental: Example B11: Tetranychus urticae (Two-Spotted Spider Mite):Feeding/Contact Activity
Bean leaf discs on agar in 24-well microtiter plates were sprayed with aqueous test solutions prepared from 10,000 ppm DMSO stock solutions. After drying the leaf discs were infested with a mite population of mixed ages. The samples were assessed for mortality on mixed population (mobile stages) 8 days after infestation.

[8] = system: Thrips tabaci (Onion Thrips); test: Example B12: Thrips tabaci (onion thrips), feeding/contact activity; conditions: 144 h, application rate 200 ppm, mixed ages, 6 days after infestation
Experimental: Example B12: Thrips tabaci (Onion Thrips) Feeding/Contact Activity
as §1, with “on” for “onto”, “in” for “in a”, “plates” for “plate”, “drying” for “drying,”, “a thrips” for “an aphid”

[9] = system: Myzus persicae (Green Peach Aphid); test: Example B13: activity against Myzus persicae (green peach aphid), 96-well sucrose solution; conditions: 120 h, application rate 50 ppm, 5 days after infestation
Outline: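 Compounds, from 10,000 ppm DMSO stocks, mixed into sucrose solution in wells under stretched Parafilm, with aphids placed on the membrane in an inverted feeding setup. Mortality scored 5 days after infestation.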

[10] = system: Plutella xylostella (Diamondback Moth); test: Example B14: activity against Plutella xylostella (diamondback moth), 96-well artificial diet; conditions: 216 h, application rate 500 ppm, 9 days after infestation
Outline: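 Diet in 96-well plates was treated with aqueous dilutions of 10,000 ppm DMSO stocks, dried, and infested with 30 eggs per well via a netted lid; hatching L1 larvae fed on the diet. Mortality scored 9 days after infestation.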

[11] = system: Frankliniella occidentalis (Western Flower Thrips); test: Example B3: Frankliniella occidentalis (western flower thrips), feeding/contact activity; conditions: 168 h, application rate 200 ppm, mixed ages, 7 days after infestation
Experimental: Example B3: Frankliniella occidentalis (Western Flower Thrips):Feeding/Contact Activity
Sunflower leaf discs were placed on agar in 24-well microtiter plates and sprayed with aqueous test solutions prepared from 10,000 DMSO stock solutions. After drying the leaf discs were infested with a Frankliniella population of mixed ages. The samples were assessed for mortality 7 days after infestation.

[12] = system: Chilo suppressalis (Striped Rice Stemborer); test: Example B4: Chilo suppressalis (striped rice stemborer), artificial diet, L2 larvae; conditions: 144 h, application rate 200 ppm, 6 days after infestation
Outline: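 L2 larvae (6-8 per well) placed on artificial diet treated with aqueous test solutions prepared from 10,000 ppm DMSO stocks, after drying. Mortality, anti-feeding and growth inhibition scored against untreated samples 6 days after infestation; control means at least one category exceeds untreated.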

[13] = system: Spodoptera littoralis (Egyptian Cotton Leaf Worm); test: Example B9: Spodoptera littoralis (Egyptian cotton leaf worm), cotton leaf discs sprayed, L1 larvae; conditions: foliar, 72 h, application rate 200 ppm, 3 days after infestation
Outline: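 Leaf discs on agar sprayed with aqueous dilutions from 10,000 ppm DMSO stock, dried, then infested with five L1 larvae. Mortality, anti-feeding and growth inhibition scored against untreated samples 3 days after infestation; control counted when any category exceeds untreated.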

CC(c1ncnn1-c1ncccn1)N(CC1CC1)C(=O)c1cc(C(F)(F)F)cc(S(C)(=O)=O)c1 (stereo not drawn) [P34, N-(cyclopropylmethyl)-3-methylsulfonyl-N-[1-(2-pyrimidin-2-yl-1,2,4-triazol-3-yl)ethyl]-5-(trifluoromethyl)benzamide]
≥ 80%: percent effect (mortality or growth inhibition) at 200 ppm [1] | percent effect (mortality or growth inhibition) at 200 ppm [2] | percent effect (mortality or growth inhibition) at 200 ppm [3] | mortality at 200 ppm [4] | mortality at 24 ppm [5] | mortality at 12 ppm [6] | mortality at 200 ppm [7] | mortality at 200 ppm [8] | mortality at 50 ppm [9] | mortality at 500 ppm [10]

Cc1nc(C(C)NC(=O)c2cc(C(F)(F)F)cc(C3(C#N)CC3)c2)n(-c2ncccn2)n1 (stereo not drawn) [P83, 3-(1-cyanocyclopropyl)-N-[1-(5-methyl-2-pyrimidin-2-yl-1,2,4-triazol-3-yl)ethyl]-5-(trifluoromethyl)benzamide]
≥ 80%: percent effect (mortality or growth inhibition) at 200 ppm [1] | percent effect (mortality or growth inhibition) at 200 ppm [2] | mortality at 200 ppm [11] | percent control (mortality, anti-feedant effect or growth inhibition) at 200 ppm [12] | percent effect (mortality or growth inhibition) at 200 ppm [3] | mortality at 200 ppm [4] | mortality at 24 ppm [5] | mortality at 12 ppm [6] | percent control (mortality, anti-feedant effect or growth inhibition) at 200 ppm [13] | mortality at 200 ppm [7] | mortality at 50 ppm [9]
